The source of these data is ChEMBL document CHEMBL3779797, “Isoindole-1,3-dione derivatives as RSK2 inhibitors: synthesis, molecular docking simulation and SAR analysis” (Medchemcomm, 2016).

pIC50: −log10 of the molar value.

In general, inhibition refers to the relative decrease from the control value, in per cent. One may read the pIC50 as the negative decadic logarithm of the IC50, by convention in mol/L.

Test [1] has as its target Ribosomal protein S6 kinase alpha-2 (Homo sapiens) (UniProt Q15349). The test can be described thus: Inhibition of N-terminal His6 tagged full-length human recombinant active RSK2 at 10 uM using S6 peptide after 20 mins by fluorescence assay.
Test [2] in a line: Inhibition of RSK2 in rabbit skeletal muscle using KKRNRTLSVA as substrate after 10 mins in presence of [gamma32P]ATP. More on the design: species or system Oryctolagus cuniculus.

Chain of Ribosomal protein S6 kinase alpha-2 (Homo sapiens) (Q15349 whole entry): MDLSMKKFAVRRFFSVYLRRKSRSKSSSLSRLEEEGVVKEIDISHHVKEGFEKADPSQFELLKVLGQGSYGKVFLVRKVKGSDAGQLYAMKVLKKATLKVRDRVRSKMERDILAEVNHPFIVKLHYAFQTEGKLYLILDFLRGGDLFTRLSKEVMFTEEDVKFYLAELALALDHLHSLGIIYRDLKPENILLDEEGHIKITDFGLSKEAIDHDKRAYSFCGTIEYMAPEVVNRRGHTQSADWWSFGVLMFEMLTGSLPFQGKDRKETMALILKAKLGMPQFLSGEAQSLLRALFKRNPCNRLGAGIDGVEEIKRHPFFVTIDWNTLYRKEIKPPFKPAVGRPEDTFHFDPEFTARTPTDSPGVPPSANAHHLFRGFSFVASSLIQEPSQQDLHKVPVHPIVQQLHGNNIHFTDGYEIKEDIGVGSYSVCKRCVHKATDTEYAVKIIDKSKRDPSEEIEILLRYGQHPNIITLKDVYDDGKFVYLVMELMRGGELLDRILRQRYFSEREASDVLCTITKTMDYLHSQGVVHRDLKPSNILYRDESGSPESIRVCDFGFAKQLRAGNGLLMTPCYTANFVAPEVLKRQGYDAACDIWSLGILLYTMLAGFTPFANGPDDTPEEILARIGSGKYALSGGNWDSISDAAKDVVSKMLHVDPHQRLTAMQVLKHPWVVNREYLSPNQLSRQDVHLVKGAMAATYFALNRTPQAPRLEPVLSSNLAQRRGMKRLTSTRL

In the case of `COc1ccc(NCN2C(=O)c3cccc(N)c3C2=O)cc1`, in test [1], the inhibition amounted to 95.6%.

For `O=C1c2ccccc2C(=O)N1CNc1ccc(F)cc1`, in test [1], the inhibition is 56.7%.

Turning to `COc1ccc(N(C)CN2C(=O)c3ccccc3C2=O)cc1`, in test [1], the inhibition was found to be 87%.

Take `CC(C)c1ccc(NCN2C(=O)c3ccccc3C2=O)cc1`: the inhibition in test [1] worked out at 46.5%.

For `CN(C)CCCn1cc(C2=C(c3c[nH]c4ccccc34)C(=O)NC2=O)c2ccccc21` [GF-109203], in test [2], the pIC50 was 7.30.

Take `CCOc1ccc(NCN2C(=O)c3cccc(NC(=O)c4ccccc4)c3C2=O)cc1`: the inhibition in test [1] was 105%.

As to `Cn1cc(C2=C(c3cn(CCCSC(=N)N)c4ccccc34)C(=O)NC2=O)c2ccccc21` [BISINDOLYLMALEIMIDE IX], the inhibition in test [1] was determined as 98.2%. In addition, the negative-log IC50 (pIC50) in test [2] is 8.52.

`COc1ccc(NCN2C(=O)c3ccc(NC(=O)c4ccccc4)cc3C2=O)cc1`: the inhibition in test [1] stood at 82%.

With `CCN(CC)c1ccc(NCN2C(=O)c3ccccc3C2=O)c(C)c1`, the inhibition in test [1] turned out to be 81%.

Regarding `COc1ccc(NCN2C(=O)c3ccccc3C2=O)cc1`, the inhibition in test [1] is 97.2%.

On to `O=C1c2ccccc2C(=O)N1CNc1ccc(O)cc1`, for which the inhibition in test [1] is 101%.

Take `Cc1ccc(NCN2C(=O)c3ccc([N+](=O)[O-])cc3C2=O)cc1`: the inhibition in test [1] turned out to be 35.7%.

In the case of `CCOc1ccc(NCN2C(=O)c3ccccc3C2=O)cc1`, in test [1], the inhibition was determined as 100%.

With `COc1ccc(NCN2C(=O)c3ccc(NC(=O)Nc4ccccc4)cc3C2=O)cc1`, the inhibition in test [1] was determined as 34.8%.

In the case of `O=C1c2ccccc2C(=O)N1CNc1ccc(Cl)cc1`, the inhibition in test [1] is 8.52%.

For `Cc1ccc(NCN2C(=O)c3ccccc3C2=O)cc1`, in test [1], the inhibition is 54%.

Turning to `COc1ccc(NCN2C(=O)c3ccc(N)cc3C2=O)cc1`, the inhibition in test [1] is 109%.

For the compound `CCOc1ccc(NCN2C(=O)c3ccc([N+](=O)[O-])cc3C2=O)cc1`, the inhibition in test [1] is 87%.

With `O=C1c2ccccc2C(=O)N1CNc1ccccc1`, the inhibition in test [1] worked out at 43.6%.

In the case of `O=C1c2ccccc2C(=O)N1CNc1ccc(N2CCOCC2)cc1`, the inhibition in test [1] was determined as 101%.

With `CCOc1ccc(NCN2C(=O)c3ccc(NC(=O)c4ccccc4)cc3C2=O)cc1`, in test [1], the inhibition was 69.5%.

Turning to `COc1ccc(N(CN2C(=O)c3ccccc3C2=O)C(C)=O)cc1`, the inhibition in test [1] was 17.2%.

For `O=C(Nc1ccc2c(c1)C(=O)N(CNc1ccc(N3CCOCC3)cc1)C2=O)c1ccccc1`, the inhibition in test [1] is 103%.

Regarding `COc1ccc(NCN2C(=O)c3cccc(NC(=O)c4ccccc4)c3C2=O)cc1`, the inhibition in test [1] was found to be 99.5%.

As to `CCc1ccc(NCN2C(=O)c3ccccc3C2=O)cc1`, the inhibition in test [1] stood at 63%.

As to `O=C1c2ccccc2C(=O)N1CNc1ccc(OC(F)(F)F)cc1`, in test [1], the inhibition was 28.1%.
